In patent US11821903B2, “Sensor” (The University of Bristol, priority 2017, dated 2023):

Assay: Binding of reporter dye prodan to the lumen of alpha helical barrels (fluorescence titration)
Conditions: dissociation constant of prodan (1 μM) with alpha helical barrel 0.5-500 μM, up to 2 hours, fluorescent signal
Experimental: The dyes 1,6-diphenyl-1,3,5-hexatriene (DPH) and 6-propionyl-2-dimethylaminonaphthalene (prodan) were assayed against a number of alpha helical barrels to determine their dissociation constants, KD. DPH or prodan (1 μM) was incubated with varying concentrations of alpha helical barrel (0.5-500 μM) for up to 2 hours, and the fluorescent signal measured at the corresponding emission wavelength.

Sequence	Kd	Prodan KD
GELKAIAQELKAIAKELKAIAWELKAIAQG [CC-Hex, forms alpha helical barrel with 6 helices]	> 500 µM	did not bind
GKIEQILQKIEKILQKIEWILQKIEQILQG [CC-Pent, forms alpha helical barrel with 5 helices]	> 500 µM	did not bind
